The source of these data is US11884647B2, “Compounds and methods for targeting pathogenic blood vessels” (THE REGENTS OF THE UNIVERSITY OF CALIFORNIA, priority 2019, dated 2024).

Assay [1] concerns tumor endothelial cells (CT26.CL25 colon cancer tumor). Put plainly: Colon CT26 ex vivo model of tumor angiogenesis. Format: cell-based. The following applies: Mus musculus, CT26, 48 h, read-out: Cell death. In short, it runs like this:
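Explant pieces of CT26 tumor (about 0.075 mm^3) were embedded in Matrigel and grown in endothelial growth medium at 37 °C for about 7 days until endothelial outgrowth appeared, then treated. Cell death was read about 48 h after drug addition by fluorescein diacetate (live) and propidium iodide (dead) staining with red/green imaging.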

Assay [2] relates to tumor endothelial cells (LL/2 lung cancer tumor). Put plainly: Lung LL2 ex vivo model of tumor angiogenesis. The format is cell-based, mouse. The note with it: for cytotoxicity at 40 µM / cytotoxicity at 20 µM: Mus musculus, Endothelial cell, 48 h, read-out: Cell death; for Cell death: Lung LL2 ex vivo, drug treatment two days. A digest of the protocol:
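Read-out is live/dead fluorescence imaging (fluorescein diacetate green, propidium iodide red, 10 min at 37° C) at 2×, taken e.g. 48 h after drug addition. Fragments of mouse LL2 tumor are cultured in Matrigel with endothelial growth medium, usually 4 days, until new endothelial cells grow out, then treated.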

With `COc1ccc(S(=O)(=O)c2cnc3ccc(CC#N)cc3c2NN2CCN(C)CC2)cc1` [compound 99, 2-(3-((4-methoxyphenyl)sulfonyl)-4-((4-methylpiperazin-1-yl)amino)quinolin-6-yl)acetonitrile], the values for the cytotoxicity at 40 µM in assay [1] and in assay [2] were 0% and 10%, respectively.

For the compound `CCc1ccc(S(=O)(=O)c2cnc3ccc(OC(F)(F)F)cc3c2N2CCCN(CCN(CC)CC)CC2)cc1` [compound 100, N,N-diethyl-2-(4-(3-((4-ethylphenyl)sulfonyl)-6-(trifluoromethoxy)quinolin-4-yl)-1,4-diazepan-1-yl)ethan-1-amine], the cytotoxicity at 40 µM in assay [1] and in assay [2] was 100% in each case.

For `CCc1ccc(S(=O)(=O)c2cnc3ccc(OC(F)(F)F)cc3c2N2CCC(OCCN(CC)CC)CC2)cc1` [compound 101, N,N-diethyl-2-((1-(3-((4-ethylphenyl)sulfonyl)-6-(trifluoromethoxy)quinolin-4-yl)piperidin-4-yl)oxy)ethan-1-amine], the cytotoxicity at 20 µM in assay [1] worked out at 50%. Also, the Cell death in assay [2] (Conc. 20 μm) is recorded as 100%.

For `CCc1ccc(S(=O)(=O)c2cnc3ccc(OC(F)(F)F)cc3c2N2CCC(N3CCC(O)CC3)CC2)cc1` [compound 102, 1′-(3-((4-ethylphenyl)sulfonyl)-6-(trifluoromethoxy)quinolin-4-yl)-[1,4′-bipiperidin]-4-ol], in assay [1], the cytotoxicity at 40 µM turned out to be 5%. The compound further yielded a Cell death in assay [2] (Conc. 20 μm) of 20%.

As for `CCc1ccc(S(=O)(=O)c2cnc3ccc(OC(F)(F)F)cc3c2-n2ccnn2)cc1` [compound 110, 3-((4-ethylphenyl)sulfonyl)-4-(1H-1,2,3-triazol-1-yl)-6-(trifluoromethoxy)quinoline], in assay [1], the cytotoxicity at 40 µM turned out to be 10%. Moreover, the cytotoxicity at 20 µM in assay [2] stood at 95%.

In the case of `CCc1ccc(S(=O)(=O)c2cnc3ccc(OC(F)(F)F)cc3c2-n2nnc3ccccc32)cc1` [compound 112, 4-(1H-benzo[d][1,2,3]triazol-1-yl)-3-((4-ethylphenyl)sulfonyl)-6-(trifluoromethoxy)quinoline], the cytotoxicity at 40 µM in assay [1] was determined as 10%. In addition, the cytotoxicity at 20 µM in assay [2] worked out at 70%.

On to `CCCCOc1ccc2ncc(S(=O)(=O)c3ccc(OC)c(OC)c3)c(N3CCC(N4CCCCC4)CC3)c2c1` [compound 116, 4-([1,4′-bipiperidin]-1′-yl)-6-butoxy-3-((3,4-dimethoxyphenyl)sulfonyl)quinoline], for which the results for the cytotoxicity at 20 µM in assay [1] and in assay [2] were 50% and 100%, respectively.

Turning to `CCc1ccc(S(=O)(=O)c2cnc3ccc(OC(F)(F)F)cc3c2-n2cnc(C)c2)cc1` [compound 117, 3-((4-ethylphenyl)sulfonyl)-4-(4-methyl-1H-imidazol-1-yl)-6-(trifluoromethoxy)quinoline], the cytotoxicity at 20 µM in assay [1] and in assay [2] was 100% each time.

`CCc1ccc(S(=O)(=O)c2cnc3ccc(OC(F)(F)F)cc3c2-n2ccnc2)cc1` [compound 118, 3-((4-ethylphenyl)sulfonyl)-4-(1H-imidazol-1-yl)-6-(trifluoromethoxy)quinoline]: the cytotoxicity at 20 µM in assay [1] and in assay [2] was 100% in each case.

For `CCCCOc1ccc(S(=O)(=O)c2cnc3ccc(OC(F)(F)F)cc3c2N2CCC(N3CCCCC3)CC2)cc1` [compound 119, 4-([1,4′-bipiperidin]-1′-yl)-3-((4-butoxyphenyl)sulfonyl)-6-(trifluoromethoxy)quinoline], the cytotoxicity at 20 µM in assay [1] was 50%; in assay [2], 100%.

`COc1ccc(S(=O)(=O)c2cnc3ccc(SC)cc3c2N2CCC(N3CCCCC3)CC2)cc1OC` [compound 121, 4-([1,4′-bipiperidin]-1′-yl)-3-((3,4-dimethoxyphenyl)sulfonyl)-6-(methylthio)quinoline]: the cytotoxicity at 40 µM in assay [1] worked out at 40%; in assay [2], 50%.

On to `CCCCOc1ccc(S(=O)(=O)c2cnc3ccc(OC(F)(F)F)cc3c2N2CCCN(C)CC2)cc1` [compound 151, 3-((4-butoxyphenyl)sulfonyl)-4-(4-methyl-1,4-diazepan-1-yl)-6-(trifluoromethoxy)quinoline], for which the cytotoxicity at 40 µM in assay [1] and in assay [2] was 100% each time.

Regarding `CCCCOc1ccc(S(=O)(=O)c2cnc3ccc(OC(F)(F)F)cc3c2N2CCC(N3CCC(O)CC3)CC2)cc1` [compound 152, 1′-(3-((4-butoxyphenyl)sulfonyl)-6-(trifluoromethoxy)quinolin-4-yl)-[1,4′-bipiperidin]-4-ol], the cytotoxicity at 40 µM in assay [1] amounted to 30%. In addition, in assay [2], the cytotoxicity at 20 µM was found to be 20%.

As to `COc1ccc(S(=O)(=O)c2cnc3ccc(SC)cc3c2N2CCCN(C)CC2)cc1OC` [compound 154, 3-((3,4-dimethoxyphenyl)sulfonyl)-4-(4-methyl-1,4-diazepan-1-yl)-6-(methylthio)quinoline], the cytotoxicity at 40 µM in assay [1] and in assay [2] was 30% in each case.

Regarding `CCCCN(CCCC)c1c(S(=O)(=O)c2ccc(OC)cc2)cnc2ccc(C(=O)OCC)cc12` [compound 155, ethyl 4-(dibutylamino)-3-((4-methoxyphenyl)sulfonyl)quinoline-6-carboxylate], in assay [1], the cytotoxicity at 40 µM amounted to 20%. Besides, the Cell death in assay [2] (Conc. 40 μm) is 80%.

For the compound `CCOC(=O)c1ccc2ncc(S(=O)(=O)c3ccc(OC)cc3)c(N(CCO)CCO)c2c1` [compound 156, ethyl 4-(bis(2-hydroxyethyl)amino)-3-((4-methoxyphenyl)sulfonyl)quinoline-6-carboxylate], the cytotoxicity at 40 µM in assay [1] stood at 0%. Besides, the Cell death in assay [2] (Conc. 40 μm) was determined as 30%.

As for `CCCCOc1ccc(S(=O)(=O)c2cnc3ccc(C(=O)OCC)cc3c2N2CCC(N3CCCCC3)CC2)cc1` [compound 157, ethyl 4-([1,4′-bipiperidin]-1′-yl)-3-((4-butoxyphenyl)sulfonyl)quinoline-6-carboxylate], the cytotoxicity at 40 µM in assay [1] worked out at 60%; in assay [2], 100%.

Take `CCCCOc1ccc(S(=O)(=O)c2cnc3ccc(C(=O)OCC)cc3c2N2CCCN(C)CC2)cc1` [compound 158, ethyl 3-((4-butoxyphenyl)sulfonyl)-4-(4-methyl-1,4-diazepan-1-yl)quinoline-6-carboxylate]: the cytotoxicity at 40 µM in assay [1] and in assay [2] was 100% in each case.

As for `CCCCOc1ccc(S(=O)(=O)c2cnc3ccc(SC)cc3c2N2CCC(N3CCCCC3)CC2)cc1` [compound 159, 4-([1,4′-bipiperidin]-1′-yl)-3-((4-butoxyphenyl)sulfonyl)-6-(methylthio)quinoline], the cytotoxicity at 40 µM in assay [1] and in assay [2] was 100% in each case.

Regarding `CCCCOc1ccc(S(=O)(=O)c2cnc3ccc(SC)cc3c2N2CCCN(C)CC2)cc1` [compound 160, 3-((4-butoxyphenyl)sulfonyl)-4-(4-methyl-1,4-diazepan-1-yl)-6-(methylthio)quinoline], the cytotoxicity at 40 µM in assay [1] and in assay [2] was 100% in each case.

`CCCCOc1ccc(S(=O)(=O)c2cnc3ccc(C(=O)OCC)cc3c2N2CCC(N3CCC(O)CC3)CC2)cc1` [compound 161, ethyl 3-((4-butoxyphenyl)sulfonyl)-4-(4-hydroxy-[1,4′-bipiperidin]-1′-yl)quinoline-6-carboxylate]: the cytotoxicity at 40 µM in assay [1] turned out to be 100%; in assay [2] it was 90%.

`CCCCOc1ccc(S(=O)(=O)c2cnc3ccc([S+](C)[O-])cc3c2N2CCCN(C)CC2)cc1` (centres unmarked) [compound 163, 3-((4-butoxyphenyl)sulfonyl)-4-(4-methyl-1,4-diazepan-1-yl)-6-(methylsulfinyl)quinoline]: the cytotoxicity at 40 µM in assay [1] came to 100%; in assay [2] it was 95%.

Consider `CCCCOc1ccc(S(=O)(=O)c2cnc3ccc(S(C)(=O)=O)cc3c2N2CCCN(C)CC2)cc1` [compound 164, 3-((4-butoxyphenyl)sulfonyl)-4-(4-methyl-1,4-diazepan-1-yl)-6-(methylsulfonyl)quinoline], for which the cytotoxicity at 40 µM came to 100% in assay [1] and 95% in assay [2].

In the case of `CCN(CC)C(=O)c1ccc2ncc(S(=O)(=O)c3ccc(OC)cc3)c(N3CCCN(C)CC3)c2c1` [compound 165, N,N-diethyl-3-((4-methoxyphenyl)sulfonyl)-4-(4-methyl-1,4-diazepan-1-yl)quinoline-6-carboxamide], the cytotoxicity at 40 µM in assay [1] and in assay [2] was 10% throughout.

Consider `CCN(CC)CCNC(=O)c1ccc2ncc(S(=O)(=O)c3ccc(OC)cc3)c(N3CCCN(C)CC3)c2c1` [compound 166, N-(2-(diethylamino)ethyl)-3-((4-methoxyphenyl)sulfonyl)-4-(4-methyl-1,4-diazepan-1-yl)quinoline-6-carboxamide], for which the values for the cytotoxicity at 40 µM in assay [1] and in assay [2] were 60% and 10%, respectively.

For `CCCCOc1ccc(S(=O)(=O)c2cnc3ccc(C(=O)OCC)cc3c2N2CCSCC2)cc1` [compound 191, ethyl 3-((4-butoxyphenyl)sulfonyl)-4-thiomorpholinoquinoline-6-carboxylate], the cytotoxicity at 40 µM came to 10% in assay [1] and 30% in assay [2].

Take `CCCCOc1ccc(S(=O)(=O)c2cnc3ccc(C(=O)NC(C)C)cc3c2N2CCCN(C)CC2)cc1` [compound 192, 3-((4-butoxyphenyl)sulfonyl)-N-isopropyl-4-(4-methyl-1,4-diazepan-1-yl)quinoline-6-carboxamide]: the cytotoxicity at 40 µM in assay [1] was 10%; in assay [2], 60%.

On to `CCCCOc1ccc(S(=O)(=O)c2cnc3ccc(C(=O)N(CC)CC)cc3c2N2CCC(N3CCCCC3)CC2)cc1` [compound 201, 4-([1,4′-bipiperidin]-1′-yl)-3-((4-butoxyphenyl)sulfonyl)-N,N-diethylquinoline-6-carboxamide], for which the values for the cytotoxicity at 40 µM in assay [1] and in assay [2] were 10% and 30%, respectively.
